The supplement of paper PMC10307832

Columns and labels:
Test in all cases: relative viability (nuclei count vs DMSO), 5 days (fraction); higher = more cells survive
Vismodegib = compound: CS(=O)(=O)c1ccc(C(=O)Nc2ccc(Cl)c(-c3ccccn3)c2)c(Cl)c1 [Vismodegib]
Summary of the method: (§1)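 In 1536-well plates, lung cancer cell lines rested overnight at 37 °C before five library-drug doses (not always all listed), √10 apart, were pinned onto vehicle-anchored plates. Nuclei were counted with MetaXpress from 4× Hoechst images taken after 5 days without medium change. Viability compares treated-well with vehicle-well nuclei as a median over plates, and plates needed control CV below 25% plus at least one doubling to pass.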

VE-821 = compound: CS(=O)(=O)c1ccc(-c2cnc(N)c(C(=O)Nc3ccccc3)n2)cc1 [VE-821]
Summary of the method: as §1

Ruxolitinib = compound: N#CC[C@H](C1CCCC1)n1cc(-c2ncnc3[nH]ccc23)cn1 [Ruxolitinib]
Summary of the method: as §1

VE-821 + Foretinib = compound: CS(=O)(=O)c1ccc(-c2cnc(N)c(C(=O)Nc3ccccc3)n2)cc1 [VE-821] + COc1cc2c(Oc3ccc(NC(=O)C4(C(=O)Nc5ccc(F)cc5)CC4)cc3F)ccnc2cc1OCCCN1CCOCC1 [Foretinib] (partner 0.25 µM)
Summary of the method: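 After 5 days of treatment, lung cancer cells in 1536-well plates were fixed and stained in a single step (final 0.05% Triton X-100, 1% formaldehyde, 1 ug/ml Hoechst) and their nuclei counted on 4× images. Treatment had been applied by pin tool the day after seeding as one drug alone or as a fixed anchor-drug dose with five library-drug doses (not always all listed) in √10 steps. Relative viability is the nuclei count of treated wells divided by that of vehicle wells, and values are medians of duplicate plates.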

Cell Line	relative viability (Vismodegib; 0.08 µM)	relative viability (Vismodegib; 0.253 µM)	relative viability (Vismodegib; 0.8 µM)	relative viability (Vismodegib; 2.53 µM)	relative viability (Vismodegib; 8 µM)	relative viability (VE-821; 0.08 µM)	relative viability (VE-821; 0.253 µM)	relative viability (VE-821; 0.8 µM)	relative viability (VE-821; 2.53 µM)	relative viability (VE-821; 8 µM)	relative viability (Ruxolitinib; 0.08 µM)	relative viability (Ruxolitinib; 0.253 µM)	relative viability (Ruxolitinib; 0.8 µM)	relative viability (Ruxolitinib; 2.53 µM)	relative viability (Ruxolitinib; 8 µM)	relative viability (VE-821 + Foretinib; first compound 0.08 µM)	relative viability (VE-821 + Foretinib; first compound 0.253 µM)	relative viability (VE-821 + Foretinib; first compound 0.8 µM)	relative viability (VE-821 + Foretinib; first compound 2.53 µM)	relative viability (VE-821 + Foretinib; first compound 8 µM)
SW 900	0.982	0.879	0.737	0.655	0.93	1.01	0.793	0.763	0.748	0.537	0.991	1.02	1.03	1.02	0.896	0.848	0.997	0.836	0.916	0.681
NCI-H358	0.945	0.989	0.973	0.911	0.921	1.05	0.964	0.936	1.08	0.803	0.848	0.921	0.889	0.537	0.63	0.687	0.598	0.591	0.896	0.624
ChaGo-K-1	0.932	1	1.03	0.959	0.97	1.03	0.882	1	0.967	0.738	1.04	0.928	0.947	0.872	0.735	0.988	0.971	0.814	1	0.734
NCI-H1755	0.983	0.982	1.01	1	0.982	1.04	0.966	0.905	0.957	0.873	0.974	0.989	1.03	0.916	0.825	0.956	0.855	0.845	0.92	0.765
LCLC-103H	0.967	1.04	0.92	1.01	1.02	1.07	0.915	0.952	1.21	0.891	1.04	1.01	0.993	1.05	0.956	0.926	0.876	0.82	0.914	0.572
HCC-827	1.04	1.01	1.04	1.03	1.03	1.06	1.02	1.1	1.06	1.04	–	1.01	0.891	0.859	0.901	1.13	0.956	1.02	1.05	0.827
HCC-44	1.01	0.94	0.938	0.934	1.01	1	0.962	1.06	1.04	1.04	0.958	0.939	1.04	1.02	0.843	–	–	–	–	–
NCI-H727	0.891	0.931	0.804	0.988	0.81	0.894	0.884	0.958	0.911	0.446	0.934	1.02	1.11	0.904	1.36	1.27	0.982	0.823	0.789	0.405
NCI-H1563	0.944	0.931	0.954	1.04	1.02	1.01	0.985	0.81	0.886	0.762	0.985	0.99	1.02	0.853	0.879	0.937	0.903	0.769	0.876	0.83
NCI-H1650	0.934	0.813	0.877	0.864	0.941	0.934	0.841	0.911	0.802	0.465	–	0.958	1.29	0.812	0.787	1.15	1.11	0.718	1.39	0.692
COR-L 105	0.968	0.817	0.959	0.961	0.96	0.782	0.811	0.776	0.794	0.574	0.76	0.863	0.914	0.824	0.695	1.06	1.15	0.937	0.731	0.759
COR-L23	0.981	0.933	1.03	1.02	1.05	1.12	0.953	1.15	1.11	0.866	1.07	0.995	1.09	0.981	0.785	1.09	0.974	0.915	1.27	0.917
NCI-H596	0.986	1.02	0.898	0.932	0.952	0.984	0.907	0.972	0.975	1	1.09	0.98	1.12	1.09	1.07	0.867	0.617	0.928	0.905	0.607
NCI-H322M	0.912	0.896	0.932	0.868	0.88	0.96	0.912	0.96	0.864	0.371	0.934	0.962	1.04	1.27	1.36	1.07	0.879	0.89	0.858	0.393
H3255	0.921	0.921	0.951	0.936	0.962	0.987	0.961	0.92	1.06	0.944	0.73	0.938	1.09	0.969	0.811	0.883	0.843	0.913	0.91	0.857
PC-14	0.958	0.959	0.988	0.915	0.952	1.06	0.932	0.995	0.969	0.686	–	1.07	1.01	0.865	0.8	1.1	0.913	0.974	1.02	0.984
